From PubChem BioAssay (NCI)
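Cultured in 96-well plates, cells were exposed to test compound for 48 hours across five concentrations. GI50 marks 50% less growth. TGI: total growth inhibition.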

Experiments:
Test in all cases: DTP human tumour cell line panel, 48 h
SF-295 CNS = test system: SF-295 CNS
PC-3 prostate = test system: PC-3 prostate
ACHN renal = test system: ACHN renal
CAKI-1 renal = test system: CAKI-1 renal
HT29 colon = test system: HT29 colon
NCI-H23 lung = test system: NCI-H23 lung
OVCAR-4 ovarian = test system: OVCAR-4 ovarian
OVCAR-8 ovarian = test system: OVCAR-8 ovarian
LOX IMVI melanoma = test system: LOX IMVI melanoma
MALME-3M melanoma = test system: MALME-3M melanoma

SMILES | GI50 (SF-295 CNS) | TGI (SF-295 CNS) | GI50 (PC-3 prostate) | TGI (PC-3 prostate) | GI50 (ACHN renal) | TGI (ACHN renal) | GI50 (CAKI-1 renal) | TGI (CAKI-1 renal) | GI50 (HT29 colon) | TGI (HT29 colon) | GI50 (NCI-H23 lung) | TGI (NCI-H23 lung) | GI50 (OVCAR-4 ovarian) | TGI (OVCAR-4 ovarian) | GI50 (OVCAR-8 ovarian) | TGI (OVCAR-8 ovarian) | GI50 (LOX IMVI melanoma) | TGI (LOX IMVI melanoma) | GI50 (MALME-3M melanoma) | TGI (MALME-3M melanoma)
NC(=O)c1cccnc1 | > 100 µM | > 100 µM | > 100 µM | > 100 µM | > 100 µM | > 100 µM | > 100 µM | > 100 µM | > 100 µM | > 100 µM | > 100 µM | > 100 µM | > 100 µM | > 100 µM | > 100 µM | > 100 µM | > 100 µM | > 100 µM | > 100 µM | > 100 µM
C=C1C(=O)O[C@H]2[C@H]1CC/C(COC(=O)NCc1ccc(Cn3c(=O)sn(CCCCC)c3=O)cc1)=C\CC[C@@]1(C)O[C@@H]21 | 12.5 µM | 25.1 µM | 1.92 µM | 3.8 µM | 1.68 µM | 3.14 µM | 2.84 µM | 12.9 µM | 2.09 µM | 3.89 µM | 1.94 µM | 4.1 µM | 1.62 µM | 3.3 µM | 2.26 µM | 5.46 µM | 1.59 µM | 2.96 µM | 1.61 µM | 3.4 µM
CCCCCCCCCc1ccc(OCCOCCOCCOCCOCCOCCOCCOCCOCCO)cc1 | 0.304 µM | 1.96 µM | 0.0898 µM | 1.18 µM | 1.19 µM | 5.7 µM | 0.478 µM | 5.75 µM | 0.685 µM | 1.98 µM | 0.257 µM | 3.26 µM | 0.131 µM | 5.04 µM | 0.231 µM | 2.71 µM | 0.23 µM | 0.996 µM | 0.646 µM | 1.63 µM
CC(=O)c1ccc2c(c1)N(CCCN1CCN(CCO)CC1)c1ccccc1S2 | 2.15 µM | 4.26 µM | 2.4 µM | 9.35 µM | 2.98 µM | 11.4 µM | 1.73 µM | 4.22 µM | 1.7 µM | 3.75 µM | 5.68 µM | 18.9 µM | 3.98 µM | 14.7 µM | 3.34 µM | 10.5 µM | 1.68 µM | 3.26 µM | 1.75 µM | 3.62 µM
CCOC(=O)c1sc(-c2ccc(OS(=O)(=O)C[C@]34CCC(CC3=O)C4(C)C)c(C=O)c2)nc1C | 1.16 µM | 2.85 µM | 1.4 µM | > 50 µM | 1.3 µM | 3.71 µM | 0.667 µM | 2.67 µM | 1.23 µM | 3.34 µM | 1.04 µM | 2.64 µM | 1.49 µM | > 50 µM | 1.53 µM | > 50 µM | 1.05 µM | 2.34 µM | 1.08 µM | 2.65 µM
COc1cc(OCc2cccc(-c3ccccc3)c2C)cc(OC)c1CN1CCCCC1C(=O)NCCOCCOCCN (stereo not given) | 2.03 µM | 4.23 µM | 2.76 µM | 11.6 µM | 3.43 µM | 13 µM | 1.94 µM | 5.96 µM | 2.38 µM | 6.65 µM | 5.22 µM | 19.2 µM | 2.33 µM | 6.48 µM | 3.26 µM | 12.1 µM | 1.7 µM | 3.21 µM | 1.55 µM | 3.05 µM
Nc1c(C(=O)c2cccc(C#CCN3CCCCC3)c2)cnn1-c1ccc(F)cc1 | > 25 µM | > 25 µM | > 25 µM | > 25 µM | > 19.2 µM | > 25 µM | > 25 µM | > 25 µM | > 17.7 µM | > 25 µM | > 22.5 µM | > 25 µM | > 22.6 µM | > 25 µM | > 25 µM | > 25 µM | > 25 µM | > 25 µM | > 25 µM | > 25 µM
CCCc1nc(Cl)nc(Cl)c1Cl |  | 6.89 µM |  | 1.6 µM |  | 1.62 µM |  | 0.433 µM |  | 1.56 µM |  | 2.04 µM |  | 0.289 µM |  | 0.637 µM |  | 1.62 µM |  | 2.46 µM
CN(C)CCCOc1cccc(NC2=C(Cl)C(=O)C(Nc3cccc(OCCCN(C)C)c3)=C(Cl)C2=O)c1 | 1.73 µM | 3.18 µM | 1.57 µM | 3.29 µM | 1.78 µM | 3.16 µM | 1.45 µM | 2.76 µM | 0.56 µM | 1.59 µM | 1.13 µM | 2.79 µM | 0.216 µM | 0.592 µM | 1.57 µM | 3.44 µM | 0.175 µM | 0.346 µM | 0.592 µM | 1.36 µM
Cc1cc(CCl)c(C)cc1CCl | 0.84 µM | 4.61 µM | 2.25 µM | 10.1 µM | 0.695 µM | 3.08 µM | 0.358 µM | 1.59 µM | 1.44 µM | 3.68 µM | 3.77 µM | 18.5 µM | 3.4 µM | 12.8 µM | 3.21 µM | 17.4 µM | 0.883 µM | 3.79 µM | 1.96 µM | 5.46 µM
COc1cc(C2=NN(C(C)=O)C(c3cc(OC)c(OC)c(OC)c3)C2)ccc1O (stereo not given) | 0.216 µM | > 100 µM | 0.304 µM | > 100 µM | 0.614 µM | > 100 µM | 0.317 µM | > 21.5 µM | 0.358 µM | > 100 µM | 0.51 µM | > 100 µM | 0.532 µM | > 100 µM | 0.619 µM | > 100 µM | 0.618 µM | > 100 µM |  | 
O=C1/C(=C\c2ccco2)Oc2ccccc21 |  | > 100 µM |  | > 100 µM |  | > 100 µM |  | > 100 µM |  | > 100 µM |  | > 100 µM |  | > 100 µM |  | > 100 µM |  | > 100 µM |  | 
COc1ccc(-c2c(C#N)c(N)nc(N3CCOCC3)c2C#N)cc1 | 15 µM | 50.1 µM | 17.6 µM | 67.3 µM | 20.2 µM | > 100 µM | 13 µM | 31.8 µM | 26.6 µM | > 100 µM |  |  | 47 µM | > 100 µM | 26 µM | > 100 µM | 14.4 µM | 36.9 µM | 11.7 µM | 54.7 µM
